Laboratory results from PMC3700073, “Synthesis and Biological Activity of New Thiopyrano[2,3-d]thiazoles Containing a Naphthoquinone Moiety” (Scientia Pharmaceutica, 2013).
Read-outs that look alike come from different tables or passages of the source.

Experiments:
SF-268 (CNS cancer) = assay: NCI five-dose assay; format: cell-based; conditions: Homo sapiens, SF-268, SF-268, CNS cancer
SF-539 (CNS cancer) = assay: NCI five-dose assay; format: cell-based; conditions: Homo sapiens, SF-539, SF-539, CNS cancer
[1] = tested on: Mycobacterium tuberculosis H37Rv strain (ATCC 27294); assay: Antimycobacterial pre-screening at 6.25 μg/mL (BACTEC 460 radiometric system); format: cell-based; conditions: M. tuberculosis H37Rv; for inhibition at 6.25 µg/mL: 6.25 μg/mL; for MIC90: pre-screening, read-out: Estimation of MIC90
EKVX (NSCL cancer) = assay: NCI five-dose assay; format: cell-based; conditions: Homo sapiens
IGROV-1 (ovarian cancer) = assay: NCI five-dose assay; format: cell-based; conditions: Homo sapiens
SK-MEL-2 (melanoma) = assay: NCI five-dose assay; format: cell-based; conditions: Homo sapiens, SK-MEL-2, SK-MEL-2, melanoma
UACC-257 (melanoma) = assay: NCI five-dose assay; format: cell-based, human; conditions: for GI50: Homo sapiens, UACC-257, UACC-257, melanoma
TK-10 (renal cancer) = assay: NCI five-dose assay; format: cell-based; conditions: Homo sapiens, TK-10, TK-10, renal cancer
ACHN (renal cancer) = assay: NCI five-dose assay; format: cell-based; conditions: Homo sapiens
60 cancer cell lines [2] = assay: cells; conditions: Homo sapiens
SR (leukemia) = assay: NCI five-dose assay; format: cell-based; conditions: Homo sapiens
DU-145 (prostate cancer) = assay: NCI five-dose assay; format: cell-based; conditions: Homo sapiens, DU-145, DU-145, prostate cancer
MOLT-4 (leukemia) = assay: NCI five-dose assay; format: cell-based; conditions: Homo sapiens, MOLT-4, MOLT-4, leukemia
LOX IMVI (melanoma) = assay: NCI five-dose assay; format: cell-based; conditions: Homo sapiens
HS 578T (breast cancer) = assay: NCI five-dose assay; format: cell-based, human; conditions: for GI50: Homo sapiens, Hs-578T, HS 578T, breast cancer
SK-OV-3 (ovarian cancer) = assay: NCI five-dose assay; format: cell-based; conditions: Homo sapiens, SK-OV-3, SK-OV-3, ovarian cancer
HCC-2998 (colon cancer) = assay: NCI five-dose assay; format: cell-based; conditions: Homo sapiens, HCC 2998, HCC-2998, colon cancer
K-562 (leukemia) = assay: NCI five-dose assay; format: cell-based; conditions: Homo sapiens, K562, K-562, leukemia
SN12C (renal cancer) = assay: NCI five-dose assay; format: cell-based; conditions: Homo sapiens
KM12 (colon cancer) = assay: NCI five-dose assay; format: cell-based; conditions: Homo sapiens
HOP-92 (NSCL cancer) = assay: NCI five-dose assay; format: cell-based; conditions: Homo sapiens, HOP-92, HOP-92, NSCL cancer
OVCAR-3 (ovarian cancer) = assay: NCI five-dose assay; format: cell-based; conditions: Homo sapiens, OVCAR-3, OVCAR-3, ovarian cancer
BT-549 (breast cancer) = assay: NCI five-dose assay; format: cell-based; conditions: Homo sapiens, BT-549, BT-549, breast cancer
NCI-H23 (NSCL cancer) = assay: NCI five-dose assay; format: cell-based; conditions: Homo sapiens
HOP-62 (NSCL cancer) = assay: NCI five-dose assay; format: cell-based; conditions: Homo sapiens, HOP-62, HOP-62, NSCL cancer
SK-MEL-5 (melanoma) [3] = assay: NCI five-dose assay; format: cell-based, human; conditions: for GI50: Homo sapiens, SK-MEL-5, SK-MEL-5, melanoma; for TGI of the most sensitive cell line: SK-MEL-5 /melanoma/
SK-MEL-5 (melanoma) [4] = assay: NCI single-concentration screen; format: cell-based, human; conditions: 10^−5 M
MALME-3M (melanoma) = assay: NCI single-concentration screen; format: cell-based, human; conditions: 10^−5 M
60 cancer cell lines [5] = assay: NCI single-concentration screen, 60 cancer cell lines; format: cell-based, human; conditions: single concentration 10^−5 M
M14 (melanoma) = assay: NCI single-concentration screen; format: cell-based, human; conditions: 10^−5 M
[6] = tested on: MDA-MB-435 (breast cancer); assay: NCI single-concentration screen; format: cell-based, human; conditions: 10^−5 M
[7] = tested on: MDA-MB-468 (breast cancer); assay: NCI five-dose assay; format: cell-based; conditions: Homo sapiens, repeated testing
SF-295 (CNS cancer) = assay: NCI single-concentration screen; format: cell-based, human; conditions: 10^−5 M
(melanoma) = assay: NCI single-concentration screen; format: cell-based, human; conditions: SK-MEL-25 (melanoma), 10^−5 M
[8] = read-out: GI50 MG_MID, over the cell line panel
[9] = read-out: GI50 Range (min – max), over the cell line panel
[10] = read-out: LC50 MG_MID, over the cell line panel
[11] = read-out: LC50 Range (min – max), over the cell line panel

## COc1cc(C2C3=C(Sc4[nH]c(=O)sc42)C(=O)c2ccccc2C3=O)ccc1OCc1ccccc1 (stereo not drawn) [Compound 4e, 11-[4-(Benzyloxy)-3-methoxyphenyl]-3,11-dihydro-2H-benzo[6,7]thiochromeno[2,3-d]-[1,3]thiazole-2,5,10-trione]
SF-268 (CNS cancer)
  GI50: 14.1 µM
SF-539 (CNS cancer)
  GI50: 16.7 µM
[1]
  inhibition at 6.25 µg/mL: 15%
  MIC90: > 6.25 µg/mL
EKVX (NSCL cancer)
  GI50: 16.3 µM
IGROV-1 (ovarian cancer)
  GI50: 15.4 µM
SK-MEL-2 (melanoma)
  GI50: 20.3 µM
UACC-257 (melanoma)
  GI50: 11.3 µM
TK-10 (renal cancer)
  GI50: 29.7 µM
ACHN (renal cancer)
  GI50: 17.8 µM
60 cancer cell lines [2]; [8]
  GI50: 12 µM
60 cancer cell lines [2]; [9]
  GI50: 2.62 to 32.6 µM
60 cancer cell lines [2]; [10]
  CC50: 85.1 µM
60 cancer cell lines [2]; [11]
  CC50: 26.3 to 98.7 µM
SR (leukemia)
  GI50: 13.8 µM
DU-145 (prostate cancer)
  GI50: 4.19 µM
MOLT-4 (leukemia)
  GI50: 17.3 µM
LOX IMVI (melanoma)
  GI50: 8.03 µM
HS 578T (breast cancer)
  GI50: 4.52 µM
SK-OV-3 (ovarian cancer)
  GI50: 31.7 µM
HCC-2998 (colon cancer)
  GI50: 16.6 µM
K-562 (leukemia)
  GI50: 19.4 µM
SN12C (renal cancer)
  GI50: 15.3 µM
KM12 (colon cancer)
  GI50: 16.9 µM
HOP-92 (NSCL cancer)
  GI50: 11.5 µM
OVCAR-3 (ovarian cancer)
  GI50: 11.2 µM
BT-549 (breast cancer)
  GI50: 13.4 µM
NCI-H23 (NSCL cancer)
  GI50: 3.99 µM
HOP-62 (NSCL cancer)
  GI50: 14.9 µM
SK-MEL-5 (melanoma) [3]
  GI50: 2.62 µM
  TGI of the most sensitive cell line: 2.62 / 6.90 μM

## COc1ccc(C2C3=C(Sc4[nH]c(=O)sc42)C(=O)c2ccccc2C3=O)cc1OC (stereo not drawn) [Compound 4f, 11-(3,4-Dimethoxyphenyl)-3,11-dihydro-2H-benzo[6,7]thiochromeno[2,3-d][1,3]thiazole-2,5,10-trione]
SF-268 (CNS cancer)
  GI50: 4.89 µM
SF-539 (CNS cancer)
  GI50: 3.17 µM
[1]
  inhibition at 6.25 µg/mL: 0%
  MIC90: > 6.25 µg/mL
EKVX (NSCL cancer)
  GI50: 4.97 µM
IGROV-1 (ovarian cancer)
  GI50: 3.35 µM
SK-MEL-2 (melanoma)
  GI50: 4.19 µM
UACC-257 (melanoma)
  GI50: 6.13 µM
TK-10 (renal cancer)
  GI50: 17.6 µM
SK-MEL-5 (melanoma) [4]
  Growth % of the most sensitive cell line: −96.40%
ACHN (renal cancer)
  GI50: 9.24 µM
60 cancer cell lines [2]; [8]
  GI50: 4.19 µM
60 cancer cell lines [2]; [9]
  GI50: 1.26 to 17.7 µM
60 cancer cell lines [2]; [10]
  CC50: 47.9 µM
60 cancer cell lines [2]; [11]
  CC50: 5.34 to 93 µM
SR (leukemia)
  GI50: 3.96 µM
DU-145 (prostate cancer)
  GI50: 1.68 µM
MOLT-4 (leukemia)
  GI50: 3.88 µM
MALME-3M (melanoma)
  Growth % of the most sensitive cell line: −66.70%
60 cancer cell lines [5]
  Mean growth %: 1.77%
LOX IMVI (melanoma)
  GI50: 1.26 µM
HS 578T (breast cancer)
  GI50: 3.71 µM
SK-OV-3 (ovarian cancer)
  GI50: 13.6 µM
K-562 (leukemia)
  GI50: 4.97 µM
SN12C (renal cancer)
  GI50: 3.68 µM
KM12 (colon cancer)
  GI50: 5.99 µM
HOP-92 (NSCL cancer)
  GI50: 5.26 µM
OVCAR-3 (ovarian cancer)
  GI50: 3.01 µM
BT-549 (breast cancer)
  GI50: 2.84 µM
M14 (melanoma)
  Growth % of the most sensitive cell line: −80.36%
NCI-H23 (NSCL cancer)
  GI50: 1.68 µM
HOP-62 (NSCL cancer)
  GI50: 5.87 µM
SK-MEL-5 (melanoma) [3]
  GI50: 1.52 µM
  TGI of the most sensitive cell line: 1.52 / 2.85 μM

## COc1cc(C2C3=C(Sc4[nH]c(=O)sc42)C(=O)c2ccccc2C3=O)ccc1O (stereo not drawn) [Compound 4i, 11-(4-Hydroxy-3-methoxyphenyl)-3,11-dihydro-2H-benzo[6,7]thiochromeno[2,3-d]-[1,3]thiazole-2,5,10-trione]
SF-268 (CNS cancer)
  GI50: 2.53 µM
SF-268 (CNS cancer); repeated testing
  GI50: 3.3 µM
SF-539 (CNS cancer)
  GI50: 3.26 µM
SF-539 (CNS cancer); repeated testing
  GI50: 3.46 µM
EKVX (NSCL cancer)
  GI50: 3.24 µM
EKVX (NSCL cancer); repeated testing
  GI50: 4.03 µM
IGROV-1 (ovarian cancer)
  GI50: 2.48 µM
SK-MEL-2 (melanoma)
  GI50: 2.21 µM
SK-MEL-2 (melanoma); repeated testing
  GI50: 0.98 µM
UACC-257 (melanoma)
  GI50: 1.31 µM
UACC-257 (melanoma); repeated testing
  GI50: 0.22 µM
UACC-257 (melanoma); UACC-257 /melanoma/, repeated testing
  TGI of the most sensitive cell line: (0.22 / 1.82) μM
TK-10 (renal cancer)
  GI50: 5.74 µM
TK-10 (renal cancer); repeated testing
  GI50: 2.16 µM
[6]
  Growth % of the most sensitive cell line: −48.22%
ACHN (renal cancer)
  GI50: 2.95 µM
ACHN (renal cancer); repeated testing
  GI50: 1.66 µM
60 cancer cell lines [2]; [8]
  GI50: 1.95 µM
60 cancer cell lines [2]; read-out: GI50 MG_MID, over the cell line panel, repeated testing
  GI50: 1.7 µM
60 cancer cell lines [2]; [9]
  GI50: 0.16 to 41.4 µM
60 cancer cell lines [2]; read-out: GI50 Range (min – max), over the cell line panel, repeated testing
  GI50: 0.22 to 5.72 µM
60 cancer cell lines [2]; [10]
  CC50: 42.7 µM
60 cancer cell lines [2]; read-out: LC50 MG_MID, over the cell line panel, repeated testing
  CC50: 38 µM
60 cancer cell lines [2]; [11]
  CC50: 4.14 to 92.4 µM
60 cancer cell lines [2]; read-out: LC50 Range (min – max), over the cell line panel, repeated testing
  CC50: 4.93 to 86.6 µM
SR (leukemia)
  GI50: 41.4 µM
SR (leukemia); repeated testing
  GI50: 1.96 µM
DU-145 (prostate cancer)
  GI50: 0.51 µM
DU-145 (prostate cancer); repeated testing
  GI50: 0.93 µM
MOLT-4 (leukemia)
  GI50: 2.77 µM
MOLT-4 (leukemia); repeated testing
  GI50: 3.67 µM
60 cancer cell lines [5]
  Mean growth %: 17.75%
LOX IMVI (melanoma)
  GI50: 0.16 µM
LOX IMVI (melanoma); repeated testing
  GI50: 0.25 µM
HS 578T (breast cancer); HS 578T /breast cancer/
  TGI of the most sensitive cell line: 0.27 / 1.09 μM
HS 578T (breast cancer)
  GI50: 0.27 µM
HS 578T (breast cancer); repeated testing
  GI50: 0.65 µM
SK-OV-3 (ovarian cancer)
  GI50: 8.28 µM
SK-OV-3 (ovarian cancer); repeated testing
  GI50: 5.72 µM
[7]
  GI50: 1.75 µM
SF-295 (CNS cancer)
  Growth % of the most sensitive cell line: −50.25%
HCC-2998 (colon cancer)
  GI50: 3.77 µM
HCC-2998 (colon cancer); repeated testing
  GI50: 3.24 µM
K-562 (leukemia); repeated testing
  GI50: 1.98 µM
K-562 (leukemia); result printed as symbol
  GI50: > 100 µM
SN12C (renal cancer); repeated testing
  GI50: 3.02 µM
(melanoma)
  Growth % of the most sensitive cell line: −74.12%
KM12 (colon cancer)
  GI50: 2.25 µM
KM12 (colon cancer); repeated testing
  GI50: 2.51 µM
HOP-92 (NSCL cancer)
  GI50: 1.44 µM
HOP-92 (NSCL cancer); repeated testing
  GI50: 2.15 µM
OVCAR-3 (ovarian cancer)
  GI50: 1.03 µM
OVCAR-3 (ovarian cancer); repeated testing
  GI50: 0.57 µM
BT-549 (breast cancer)
  GI50: 2.74 µM
BT-549 (breast cancer); repeated testing
  GI50: 0.92 µM
NCI-H23 (NSCL cancer)
  GI50: 0.95 µM
NCI-H23 (NSCL cancer); repeated testing
  GI50: 0.41 µM
HOP-62 (NSCL cancer)
  GI50: 0.4 µM
HOP-62 (NSCL cancer); repeated testing
  GI50: 3.6 µM
SK-MEL-5 (melanoma) [3]
  GI50: 0.96 µM
SK-MEL-5 (melanoma) [3]; repeated testing
  GI50: 0.48 µM
